The data set is described as follows: activity coefficient (dimensionless); of the first substance listed, at infinite dilution; xn = mol fraction of the nth substance listed. To be noted: 101 kPa, Liquid, Chromatography, x1 = 0.

Several values for one entry are separate records, joined by “and”; a condition that tells them apart may be missing. Equal entries are not always repeated. Numbers after ± are expanded uncertainties.

In the case of `CCOC(C)(C)CC` [1,1-dimethylpropyl ethyl ether] + O, the activity coefficient by setting is: (288.15 K) 1350 ± 100; (298.15 K) 1990 ± 140; (308.15 K) 2530 ± 190; (318.15 K) 3320 ± 350.

As for `CCCCS` [1-butanethiol] + O, the activity coefficient (288.15 K) worked out at 6030 ± 490; the activity coefficient (298.15 K) was found to be 6040 ± 530; the activity coefficient (308.15 K) turned out to be 5830 ± 570; the activity coefficient (318.15 K) stood at 5340 ± 620; the activity coefficient (333.15 K) is 4140 ± 620.

Take `CCCS` [1-propanethiol] + O: the activity coefficient (288.15 K) was 1420 ± 110; the activity coefficient (298.15 K) is 1500 ± 120; the activity coefficient (308.15 K) stood at 1460 ± 130; the activity coefficient (318.15 K) is 1450 ± 150; the activity coefficient (333.15 K) was found to be 1310 ± 160.

For `CCOC(C)(C)C` [2-ethoxy-2-methylpropane] + O, the activity coefficient is, setting by setting: (288.15 K) 325 ± 22; (298.15 K) 514 ± 35; (308.15 K) 659 ± 46; (318.15 K) 873 ± 82.

`CCC(C)(C)OC` [2-methoxy-2-methylbutane] + O: the activity coefficient (288.15 K) is 390 ± 39, the activity coefficient (298.15 K) came to 529 ± 44, the activity coefficient (308.15 K) worked out at 725 ± 55 and the activity coefficient (318.15 K) worked out at 1070 ± 87.

For `COC(C)(C)C` [2-methoxy-2-methylpropane] + O, the activity coefficient reads like this: (288.15 K) 127 ± 13; (298.15 K) 139 ± 11; (308.15 K) 180 ± 14; (318.15 K) 234 ± 18.

For `CC(C)S` [2-propanethiol] + O, the activity coefficient reads like this: (288.15 K) 1120 ± 90; (298.15 K) 1140 ± 100; (308.15 K) 1190 ± 120; (318.15 K) 1130 ± 130.

For `CCOC(C)(C)CC(C)(C)C` [ethyl 1,1,3,3-tetramethylbutyl ether] + O, the activity coefficient (288.15 K) worked out at 111000 ± 9700; the activity coefficient (298.15 K) worked out at 143000 ± 16000; the activity coefficient (308.15 K) was 149000 ± 23000; the activity coefficient (318.15 K) came to 126000 ± 27000; the activity coefficient (333.15 K) worked out at 76900 ± 29000.

In the case of `COC(C)(C)CC(C)(C)C` [methyl 1,1,3,3-tetramethylbutyl ether] + O, the activity coefficient is 47100 and 126000 (318.15 K); 35500 and 76900 (333.15 K).

Consider `c1ccsc1` [thiophene] + O, for which the activity coefficient (288.15 K) is 1260 ± 100; the activity coefficient (298.15 K) worked out at 1270 ± 96; the activity coefficient (308.15 K) amounted to 1310 ± 100; the activity coefficient (318.15 K) is 1290 ± 110; the activity coefficient (333.15 K) was found to be 1100 ± 100.

As for `Cc1ccccc1` [toluene] + O, the activity coefficient is, setting by setting: (288.15 K) 8980 ± 950; (298.15 K) 8950 ± 950; (308.15 K) 8780 ± 930; (318.15 K) 8290 ± 880.
